Experimental data from patent US4473497A, “Pharmacologically active peptides” (Eli Lilly and Company, priority 1983, dated 1984).

What was measured:
mouse (Harlan ND4) = assay: mouse hot plate test (Mouse Jump test); assay type: in vivo; settings: subcutaneous injection, 15 minutes after administration, hot plate 55° C., latency to jump
Procedure: In the mouse hot plate test, an upright acrylic cylinder comprising, as its base, a hot plate surface which is maintained at 55° C. is used. A mouse (Harlan ND4) is given, by subcutaneous injection, a predetermined amount of test compound dissolved or suspended in a suitable carrier, and, 15 minutes after administration of the test compound, the mouse is placed on the hot plate surface. The latency in seconds until the mouse jumps from the hot plate surface is measured. […] This must occur in a dose range which produces no motor incoordination or incapacitation. The following Table records ED50 results obtained from this test. By the term "ED50 " is meant that dose which produces analgesia in 50% of the mice tested. Analgesia is defined as a response latency in the presence of test compound that is equal to or greater than the control response latency plus two standard deviations. The percent analgesia data are converted to probits, and the ED50 is calculated by regression analysis of the dose-response data. Each dose response curve must have at least four points, and each point is determined using data from a minimum of ten treated mice and ten control mice.

Cox Standard albino mice = assay: mouse writhing test (acetic acid induced); assay type: in vivo; settings: 0.6% acetic acid i.p.
Procedure: In the mouse writhing test, a writhing response is defined as a contraction of the abdominal musculature followed by extension of the hind limbs. Acetic acid administered intraperitoneally (10 ml./kg.) at a concentration of 0.6% was used to induce a writhing response. Five Cox Standard albino mice weighing 20-22 g. after being fasted overnight were observed simultaneously for the writhing response. Each mouse was used only once. The observation period was ten minutes and started five minutes following administration of the acetic acid. Inhibition of mouse writhing was calculated from the total number of writhes in the control and test compound-treated groups according to the following formula: [formula]
The dose required to reduce the frequency of writhing by 50% is defined as the ED50 and is calculated by "The Use of Regression Line in Reverse", [Brownlee, K. A., Statistical Theory and Methodology in Science and Engineering, 2nd Ed., New York, John Wiley and Sons (1965)].

L-(N-Methyl)tyrosyl-D-alanylglycine, [N-ethyl-N-(1-benzyl-2-dimethyloxidoamino)ethyl] amide, Diacetate Salt
ED50 in the Mouse Jump test (dose which produces analgesia in 50% of the mice) (mouse (Harlan ND4)): 2.5 µg/kg | ED50 in the Mouse Writhing test (dose reducing frequency of writhing by 50%) (Cox Standard albino mice; oral administration): 5.6 mg/kg | ED50 in the Mouse Writhing test (dose reducing frequency of writhing by 50%) (Cox Standard albino mice; subcutaneous administration): 0.1 mg/kg
